Reference: patent US7138361B2, “Herbicidal heterocycles” (E. I. du Pont de Nemours and Company, priority 2000, dated 2006)

Assays:
Format in all cases: in vivo
Sunflower = assay: Test C preemergence; conditions: Rate 500 g/ha, visual evaluation after 12 to 14 days
[1] = system: crabgrass (Digitaria sanguinalis); assay: Test B postemergence; conditions: 13 to 15 days
In short: (§1)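 Greenhouse test: chemicals are formulated in a surfactant-containing non-phytotoxic solvent and applied either preemergence to planted seeds or postemergence to plants 2 to 18 cm tall. Response is rated visually versus controls after 13 to 15 days, 0 meaning no effect and 100 complete control.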

wild oat (Avena fatua) = assay: Test B postemergence; conditions: 13 to 15 days
In short: as §1

[2] = system: lambsquarters (Chenopodium album); assay: Test B postemergence; conditions: 13 to 15 days
In short: as §1

[3] = system: cocklebur (Xanthium strumarium); assay: Test B postemergence; conditions: 13 to 15 days
In short: as §1

[4] = system: bermudagrass (Cynodon dactylon); assay: Test C preemergence; conditions: for Plant response rating, Bermudagrass: scale 0 to 100, 0 no effect, 100 complete control; for Plant response rating (0 to 100 where 0 is no effect and 100 is complete control), Bermudagrass: visual evaluation after 12 to 14 days
Description: (§2) Seeds of plant species selected from bermudagrass (Cynodon dactylon), Surinam grass (Brachiaria decumbens), cocklebur (Xanthium strumarium), corn (Zea mays), crabgrass (Digitaria sanguinalis), woolly cupgrass (Eriochloa villosa), giant foxtail (Setaria faberii), goosegrass (Eleusine indica), johnsongrass (Sorghum halepense), kochia (Kochia scoparia), lambsquarters (Chenopodium album), morningglory (Ipomoea hederacea), yellow nutsedge (Cyperus esculentus), pigweed (Amaranthus retroflexus), common ragweed (Ambrosia elatior), soybean (Glycine max) and velvetleaf (Abutilon theophrasti) were planted and treated preemergence with test chemicals formulated in a non-phytotoxic solvent mixture which included a surfactant.
(§3) At the same time, plants selected from these crop and weed species and also winter barley (Hordeum vulgare), blackgrass (Alopecurus myosuroides), canary grass (Phalaris minor), chickweed (Stellaria media), downy brome (Bromus tectorum), green foxtail (Setaria viridis), Italian ryegrass (Lolium multiflorum), wheat (Triticum aestivum), wild oat (Avena fatua) and windgrass (Apera spica-venti) were treated with postemergence applications of some of the test chemicals formulated in the same manner. Plants ranged in height from 2 to 18 cm (1- to 4-leaf stage) for postemergence treatments. Plant species in the flooded paddy test consisted of rice (Oryza saliva), smallflower flatsedge (Cyperus difformis), duck salad (Heteranthera limosa) and barnyardgrass (Echinochloa crus-galli) grown to the 2-leaf stage for testing. Treated plants and controls were maintained in a greenhouse for 12 to 14 days, after which time all species were compared to controls and visually evaluated. Plant response ratings, summarized in Table C, are based on a scale of 0 to 100 where 0 is no effect and 100 is complete control. A dash (-) response means no test result.

Nightshade = assay: Test C preemergence; conditions: scale 0 to 100, 0 no effect, 100 complete control
Description: as §2, §3

corn (Zea mays) = assay: Test C preemergence; conditions: for Plant response rating, Corn: scale 0 to 100, 0 no effect, 100 complete control; for Plant response rating (0 to 100), Corn: visual evaluation after 12 to 14 days
Description: as §2, §3

[5] = system: giant foxtail (Setaria faberii); assay: Test C preemergence; conditions: for Plant response rating, Foxtail, Giant: scale 0 to 100, 0 no effect, 100 complete control; for Plant response rating (0 to 100), Foxtail, Giant: visual evaluation after 12 to 14 days
Description: as §2, §3

[6] = system: johnsongrass (Sorghum halepense); assay: Test C preemergence; conditions: for Plant response rating, Johnsongrass: scale 0 to 100, 0 no effect, 100 complete control; for Plant response rating (0 to 100), Johnsongrass: visual evaluation after 12 to 14 days
Description: as §2, §3

[7] = system: pigweed (Amaranthus retroflexus); assay: Test C preemergence; conditions: preemergence; for Plant response rating, Pigweed: scale 0 to 100, 0 no effect, 100 complete control
Description: as §2, §3

[8] = system: Surinam grass (Brachiaria decumbens); assay: Test C preemergence; conditions: for Plant response rating, Surinam grass: scale 0 to 100, 0 no effect, 100 complete control; for Plant response rating (0 to 100), Surinam grass: visual evaluation after 12 to 14 days
Description: as §2, §3

[9] = system: common ragweed (Ambrosia elatior); assay: Test C preemergence; conditions: preemergence; for Plant response rating, Ragweed, Common: scale 0 to 100, 0 no effect, 100 complete control
Description: as §2, §3

[10] = system: velvetleaf (Abutilon theophrasti); assay: Test C preemergence; conditions: preemergence; for Plant response rating, Velvetleaf: scale 0 to 100, 0 no effect, 100 complete control
Description: as §2, §3

soybean (Glycine max) = assay: Test C preemergence; conditions: preemergence; for Plant response rating, Soybean: scale 0 to 100, 0 no effect, 100 complete control
Description: as §2, §3

[11] = system: woolly cupgrass (Eriochloa villosa); assay: Test C preemergence; conditions: for Plant response rating, Cupgrass, Woolly: scale 0 to 100, 0 no effect, 100 complete control; for Plant response rating (0 to 100), Cupgrass, Woolly: visual evaluation after 12 to 14 days
Description: as §2, §3

[12] = system: cocklebur (Xanthium strumarium); assay: Test C preemergence; conditions: for Plant response rating, Cocklebur: scale 0 to 100, 0 no effect, 100 complete control; for Plant response rating (0 to 100), Cocklebur: visual evaluation after 12 to 14 days
Description: as §2, §3

kochia (Kochia scoparia) = assay: Test C preemergence; conditions: for Plant response rating, Kochia: scale 0 to 100, 0 no effect, 100 complete control; for Plant response rating (0 to 100), Kochia: visual evaluation after 12 to 14 days
Description: as §2, §3

[13] = Rate 125 g/ha, scale 0 (no effect) to 100 (complete control)
[14] = Rate 500 g/ha, scale 0 to 100, 0 is no effect, 100 is complete control
[15] = Rate 500 g/ha, visual evaluation after 12 to 14 days

COc1cc(OC)cc(N2CCC(n3ccc(C(C)(C)C)n3)C2=O)c1 (centres unmarked) [Compound 71]
Plant response rating (0 to 100), Sunflower (Sunflower): 20 | Plant response rating, Crabgrass [1, 13]: 0 | Plant response rating, Crabgrass [1, 14]: 30 | Plant response rating, Wild Oat (wild oat (Avena fatua); [13]): 0 | Plant response rating, Wild Oat (wild oat (Avena fatua); [14]): 0 | Plant response rating, Lambsquarters [2, 13]: 0 | Plant response rating, Lambsquarters [2, 14]: 50 | Plant response rating, Cocklebur [3, 13]: 0 | Plant response rating, Cocklebur [3, 14]: 20 | Plant response rating, Bermudagrass ([4]; Rate 62 g/ha): 30 | Plant response rating (0 to 100 where 0 is no effect and 100 is complete control), Bermudagrass ([4]; preemergence, Rate 250 g/ha): 100 | Plant response rating (0 to 100 where 0 is no effect and 100 is complete control), Bermudagrass ([4]; preemergence, Rate 500 g/ha): 100 | Plant response rating, Bermudagrass ([4]; preemergence, Rate 125 g/ha): 90 | Plant response rating, Nightshade (Nightshade; Rate 62 g/ha): 0 | Plant response rating, Nightshade (Nightshade; Rate 125 g/ha): 20 | Plant response rating, Nightshade (Nightshade; Rate 250 g/ha): 30 | Plant response rating, Corn (corn (Zea mays); Rate 62 g/ha): 0 | Plant response rating (0 to 100), Corn (corn (Zea mays); preemergence, Rate 250 g/ha): 0 | Plant response rating (0 to 100), Corn (corn (Zea mays); preemergence, Rate 500 g/ha): 30 | Plant response rating, Corn (corn (Zea mays); preemergence, Rate 125 g/ha): 0 | Plant response rating, Foxtail, Giant ([5]; Rate 62 g/ha): 0 | Plant response rating (0 to 100), Foxtail, Giant ([5]; preemergence, Rate 250 g/ha): 0 | Plant response rating (0 to 100), Foxtail, Giant ([5]; preemergence, Rate 500 g/ha): 100 | Plant response rating, Foxtail, Giant ([5]; preemergence, Rate 125 g/ha): 90 | Plant response rating, Johnsongrass ([6]; Rate 62 g/ha): 0 | Plant response rating (0 to 100), Johnsongrass ([6]; preemergence, Rate 250 g/ha): 0 | Plant response rating (0 to 100), Johnsongrass ([6]; preemergence, Rate 500 g/ha): 40 | Plant response rating, Johnsongrass ([6]; preemergence, Rate 125 g/ha): 0 | Plant response rating (0 to 100), Pigweed [7, 15]: 100 | Plant response rating, Pigweed ([7]; Rate 125 g/ha): 0 | Plant response rating, Pigweed ([7]; Rate 250 g/ha): 100 | Plant response rating, Surinam grass ([8]; Rate 62 g/ha): 30 | Plant response rating (0 to 100), Surinam grass ([8]; preemergence, Rate 250 g/ha): 50 | Plant response rating (0 to 100), Surinam grass ([8]; preemergence, Rate 500 g/ha): 90 | Plant response rating, Surinam grass ([8]; preemergence, Rate 125 g/ha): 30 | Plant response rating (0 to 100), Ragweed, Common [9, 15]: 30 | Plant response rating, Ragweed, Common ([9]; Rate 125 g/ha): 0 | Plant response rating, Ragweed, Common ([9]; Rate 250 g/ha): 0 | Plant response rating (0 to 100), Velvetleaf [10, 15]: 0 | Plant response rating, Velvetleaf ([10]; Rate 125 g/ha): 0 | Plant response rating, Velvetleaf ([10]; Rate 250 g/ha): 0 | Plant response rating (0 to 100), Soybean (soybean (Glycine max); [15]): 0 | Plant response rating, Soybean (soybean (Glycine max); Rate 125 g/ha): 0 | Plant response rating, Soybean (soybean (Glycine max); Rate 250 g/ha): 0 | Plant response rating, Cupgrass, Woolly ([11]; Rate 62 g/ha): 0 | Plant response rating (0 to 100), Cupgrass, Woolly ([11]; preemergence, Rate 250 g/ha): 100 | Plant response rating (0 to 100), Cupgrass, Woolly ([11]; preemergence, Rate 500 g/ha): 100 | Plant response rating, Cupgrass, Woolly ([11]; preemergence, Rate 125 g/ha): 80 | Plant response rating, Cocklebur ([12]; Rate 62 g/ha): 0 | Plant response rating (0 to 100), Cocklebur ([12]; preemergence, Rate 250 g/ha): 30 | Plant response rating (0 to 100), Cocklebur ([12]; preemergence, Rate 500 g/ha): 30 | Plant response rating, Cocklebur ([12]; preemergence, Rate 125 g/ha): 0 | Plant response rating, Kochia (kochia (Kochia scoparia); Rate 62 g/ha): 80 | Plant response rating (0 to 100), Kochia (kochia (Kochia scoparia); preemergence, Rate 250 g/ha): 100 | Plant response rating (0 to 100), Kochia (kochia (Kochia scoparia); preemergence, Rate 500 g/ha): 100 | Plant response rating, Kochia (kochia (Kochia scoparia); preemergence, Rate 125 g/ha): 90
